The text below walks through data of US12264134B2 (Merck Sharp & Dohme LLC, priority 2018, dated 2025).

In this test the target is IDO1 (Homo sapiens, UniProt P14902). Description: IDO1 Cellular Assay in HeLa Cells Stimulated with IFNγ. The format is cell-based. Particulars: read-out: HeLa Cell Potency, IC50.

Broadly, the IC50 is the concentration needed to halve the response being measured.

Chain of IDO1 (P14902 whole entry): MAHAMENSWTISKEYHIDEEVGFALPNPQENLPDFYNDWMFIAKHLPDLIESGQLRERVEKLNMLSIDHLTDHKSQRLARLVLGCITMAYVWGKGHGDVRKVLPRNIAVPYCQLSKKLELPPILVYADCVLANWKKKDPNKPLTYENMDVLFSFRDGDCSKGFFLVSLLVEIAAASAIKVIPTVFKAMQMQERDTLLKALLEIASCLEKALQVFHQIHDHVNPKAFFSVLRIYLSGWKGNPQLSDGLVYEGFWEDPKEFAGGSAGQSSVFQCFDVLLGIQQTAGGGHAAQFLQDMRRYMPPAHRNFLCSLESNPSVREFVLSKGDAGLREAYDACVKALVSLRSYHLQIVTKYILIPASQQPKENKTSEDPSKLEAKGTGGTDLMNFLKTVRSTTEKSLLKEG

With `Cc1cccc(N2CCN(C(=O)Cn3nc(C(=O)N4CC[C@H](O)[C@@H](F)C4)c4c3CC(F)(F)C4)CC2)c1C` [Example 424, 2-(5,5-difluoro-3-((3 S,4S)-3-fluoro-4-hydroxypiperidine-1-carbonyl)-5,6-dihydrocyclopenta[c]pyrazol-1(4H)-yl)-1-(4-(2,3-dimethylphenyl)piperazin-1-yl)ethan-1-one], the half-maximal inhibitory concentration (IC50) came out at 413 nM.
With `CCc1cccc(N2CCN(C(=O)Cn3nc(C(=O)N4C[C@@H](C)O[C@@H](C)C4)c4c3CCC4)CC2)c1` [Example 60, 2-{3-[(2R,6S)-2,6-dimethylmorpholine-4-carbonyl]-5,6-dihydrocyclopenta[c]pyrazol-1(4H)-yl}-1-[4-(3-ethylphenyl)piperazin-1-yl]ethan-1-one], the IC50 was determined as 209 nM.
As for `Cc1cccc(N2CCN(C(=O)Cn3nc(C(=O)N4CC[C@@H](N)C(F)(F)C4)c4c3CCC4)CC2)c1C` (single isomer, unassigned) [Example 206, [(4R or 4S)-1-[1-[2-[4-(2,3-dimethylphenyl)piperazin-1-yl]-2-oxo-ethyl]-5,6-dihydro-4H-cyclopenta[c]pyrazole-3-carbonyl]-3,3-difluoro-4-piperidyl]ammonium;2,2,2-trifluoroacetate], the IC50 was 27.9 nM.
In the case of `Cc1cccc(N2CCN(C(=O)Cn3nc(C(=O)N4CCC(CCO)C4)c4c3CCC4)CC2)c1C` (stereo not drawn) [Example 154, 1-[4-(2,3-dimethylphenyl)piperazin-1-yl]-2-{3-[3-(2-hydroxyethyl)pyrrolidine-1-carbonyl]-5,6-dihydrocyclopenta[c]pyrazol-1(4H)-yl}ethan-1-one], the IC50 is 2.99 nM.
With `Cc1cccc(N2CCN(C(=O)Cn3nc(C(=O)N4CCC(O)(CF)CC4)c4c3CCC4)CC2)c1C` [Example 481, 1-(4-(2,3-dimethylphenyl)piperazin-1-yl)-2-(3-(4-(fluoromethyl)-4-hydroxypiperidine-1-carbonyl)-5,6-dihydrocyclopenta[c]pyrazol-1(4H)-yl) ethanone], the IC50 worked out at 10.6 nM.
`Cc1cccc(N2CCN(C(=O)Cn3nc(C(=O)N4CCC(O)CC4)c4c3C[C@H]3C[C@@H]43)C(C(F)F)C2)c1C` (stereo partly drawn) [Example 385, 1-(2-(difluoromethyl)-4-(2,3-dimethylphenyl)piperazin-1-yl)-2-((3bR,4aR)-3-(4-hydroxypiperidine-1-carbonyl)-3b,4,4a,5-tetrahydro-1H-cyclopropa[3,4]cyclopenta[1,2-c]pyrazol-1-yl)ethanone]: the IC50 amounted to 34.9 nM.
Regarding `Cc1c(Cl)cccc1N1CCN(C(=O)Cn2nc(C(=O)N3CCC(O)C(C)C3)c3c2C[C@H]2C[C@@H]32)CC1` (stereo partly drawn) [Example 354, 1-(4-(3-chloro-2-methylphenyl)piperazin-1-yl)-2-((3bR,4aR)-3-(4-hydroxy-3-methylpiperidine-1-carbonyl)-3b,4,4a,5-tetrahydro-1H-cyclopropa[3,4]cyclopenta[1,2-c]pyrazol-1-yl)ethanone], the IC50 worked out at 2.41 nM.
For `Cc1cccc(N2CCN(C(=O)Cn3nc(C(=O)N4CC[C@@H](O)C[C@H]4C)c4c3C[C@H]3C[C@@H]43)CC2)c1C` [Example 231, 1-[4-(2,3-dimethylphenyl)piperazin-1-yl]-2-{(3bR,4aR)-3-[(2R,4R)-4-hydroxy-2-methylpiperidine-1-carbonyl]-3b,4,4a,5-tetrahydro-1H-cyclopropa[3,4]cyclopenta[1,2-c]pyrazol-1-yl}ethan-1-one], the IC50 was determined as 4.38 nM.
Regarding `Cc1cccc(N2CCN(C(=O)Cn3nc(C(=O)N4CC[C@@H]5[C@H](CCC(=O)N5C)C4)c4c3C[C@H]3C[C@@H]43)CC2)c1C` [Example 218, (4aR,8aR)-6-((3bR,4aR)-1-(2-(4-(2,3-dimethylphenyl)piperazin-1-yl)-2-oxoethyl)-3b,4,4a,5-tetrahydro-1H-cyclopropa[3,4]cyclopenta[1,2-c]pyrazole-3-carbonyl)-1-methyloctahydro-1,6-naphthyridin-2(1H)-one], the IC50 was 0.64 nM.
As to `Cc1c(N2CCN(C(=O)Cn3nc(C(=O)N4CCO[C@H](CO)C4)c4c3C[C@H]3C[C@@H]43)CC2)cccc1C(F)(F)F` [Example 342, 2-((3bR,4aR)-3-((S)-2-(hydroxymethyl)morpholine-4-carbonyl)-3b,4,4a,5-tetrahydro-1H-cyclopropa[3,4]cyclopenta[1,2-c]pyrazol-1-yl)-1-(4-(2-methyl-3-(trifluoromethyl)phenyl)piperazin-1-yl)ethanone], the IC50 came to 2.16 nM.
On to `Cc1cccc(N2CCN(C(=O)Cn3nc(C(=O)N4CCC5NCC5C4)c4c3C[C@H]3C[C@@H]43)CC2)c1C` (stereo partly drawn) [Example 236, 2-[(3bR,4aR)-3-(3,7-diazaspiro[4.2.0]octane-3-carbonyl)-3b,4,4a,5-tetrahydro-1H-cyclopropa[3,4]cyclopenta[1,2-c]pyrazol-1-yl]-1-[4-(2,3-dimethylphenyl)piperazin-1-yl]ethan-1-one], for which the IC50 was found to be 55 nM.
Then `Cc1c(Cl)cccc1N1CCN(C(=O)Cn2nc(C(=O)N3CCN(C)C(C)C3)c3c2CCC(F)(F)C3)CC1` (stereo not drawn) [Example 382], with 11.6 nM; and `Cc1cccc(N2CCN(C(=O)Cn3nc(C(=O)N4CCC(O)CC4)c4c3C[C@H]3C[C@@H]43)C(C(F)F)C2)c1C` (single isomer, unassigned) [Example 386], with 14 nM.
The figure for `CC(=O)NC1CCN(C(=O)c2nn(CC(=O)N3CCN(c4cccc(C(F)(F)F)c4C)CC3)c3c2[C@@H]2C[C@@H]2C3)CC1` [Example 340, N-(1-((3bR,4aR)-1-(2-(4-(2-methyl-3-(trifluoromethyl)phenyl)piperazin-1-yl)-2-oxoethyl)-3b,4,4a,5-tetrahydro-1H-cyclopropa[3,4]cyclopenta[1,2-c]pyrazole-3-carbonyl)piperidin-4-yl)acetamide] is 2.46 nM; for `Cc1cccc(N2CCN(C(=O)Cn3nc(C(=O)N4CC[C@H](O)[C@@H](F)C4)c4c3C(O)CC4)CC2)c1C` (stereo partly drawn) [Example 420, 1-(4-(2,3-dimethylphenyl)piperazin-1-yl)-2-(3-((3 S,4 S)-3-fluoro-4-hydroxypiperidine-1-carbonyl)-6-hydroxy-5,6-dihydrocyclopenta[c]pyrazol-1(4H)-yl)ethan-1-one] it is 87.4 nM.
Then `Cc1cccc(N2CCN(C(=O)Cn3nc(C(=O)N4CCC(O)(CF)C4)c4c3CCC4)CC2)c1C` (stereo not drawn) [Example 485, 1-(4-(2,3-dimethylphenyl)piperazin-1-yl)-2-(3-(3-(fluoromethyl)-3-hydroxypyrrolidine-1-carbonyl)-5,6-dihydro-cyclopenta[c]pyrazol-1(4H)-yl)ethanone], with 47.5 nM.
For `Cc1cccc(N2CCN(C(=O)Cn3nc(C(=O)N4CCC(F)(CO)CC4)c4c3CCCC4)CC2)c1C` [Example 467, 1-(4-(2,3-dimethylphenyl)piperazin-1-yl)-2-(3-(4-fluoro-4-(hydroxymethyl)piperidine-1-carbonyl)-4,5,6,7-tetrahydro-1H-indazol-1-yl)ethanone], the IC50 was 1.87 nM.
With `Cc1c(Cl)cccc1N1CCN(C(=O)Cn2nc(C(=O)N3CC[C@@H](O)[C@@H](F)C3)c3c2CCC(F)(F)C3)CC1` [Example 378, 1-(4-(3-chloro-2-methylphenyl)piperazin-1-yl)-2-(5,5-difluoro-3-((3 S,4R)-3-fluoro-4-hydroxypiperidine-1-carbonyl)-4,5,6,7-tetrahydro-1H-indazol-1-yl)ethan-1-one], the IC50 amounted to 9.25 nM.
